Columns and labels:
[1] = biological target: T1, human sodium channels Nav 1.8 (Homo sapiens, UniProt Q9Y5Y9); test: Automated whole-cell voltage-clamp (ScreenPatch 384P) sodium current block, Nav 1.8; type: cell-based; conditions: CHO cells stably expressing human Nav 1.8; inactivation step -40 mV for 8 seconds, test step 10 mV (TP1A); exposure at least five minutes; room temperature; mean if two or more assays; read-out: Nav1.8 IC50
T1 construct: expressed in transfected cells
Experimental: (§1) Biological assays were performed on Chinese hamster ovary (CHO) cells that express human sodium channels Nav 1.8 or Nav 1.7 in a stable manner.
(§2) The experimental protocol voltage-clamp using the whole cell configuration was established on the automated ScreenPatch® 384P platform (SP384PE, Nanion Technologies, Livingston, NJ) and the results were recorded with a Nanion 384-well Patch Clamp chip (NPC) (Nanion Technologies, Livingston, NJ).
(§3) Formula I compounds were diluted in eight concentrations in the extracellular solution composed of saline saline solution, buffered with HEPES (mM): NaCl, 137; KCl, 4; CaCl2, 3,8; MgCl2, 1; HEPES, 10; Glucose, 10; pH 7.4. The […], 50; CsF, 90; MgCl2, 5; EGTA, 5; HEPES, 10; pH 7.2. The duration of exposure of each compound with cells expressing Nav 1.7 or Nav 1.8 was at least five minutes and the assays were performed at room temperature.
(§4) The measurements of the sodium currents of Nav 1.8 and Nav 1.7 were obtained using the voltage protocol described below.
(§5) A holding voltage of -100 mV was established followed by an inactivation voltage step at -40 mV for 8 seconds, followed by a step of -100 mV for 20 ms, followed by a 20 ms step for 10 mV for Nav 1.8 or 0 mV for Nav 1.7 (TP1A) before returning to the holding voltage of -100 mV.
(§6) The protocol was repeated at a frequency of 0.05 Hz and the amplitude of the current was quantified throughout the recording of the TP1A phase. The variation in the amplitude of the peak current was evaluated according to the formula described below, after exposing the cells expressing the channels to each concentration of the different compounds: % Block = (1−(ITP1A,molecule/ITP1A,basal)×100%, [formula] wherein ITP1A,basal and ITP1A,molecule represent the peaks of sodium current input into TP1A before exposure to the compound and in the presence of the compound, respectively.
(§7) Data were obtained by nonlinear regression (nonlinear least squares) with XLfit for Excel (Microsoft, Redmond, WA).
(§8) The compounds were tested in at least one assay to obtain the value of CI50. For compounds that were tested in two or more assays, the results are described as the mean of the CI50 values.

[2] = biological target: T2, human sodium channels Nav 1.7 (Homo sapiens, UniProt Q15858); test: Automated whole-cell voltage-clamp (ScreenPatch 384P) sodium current block, Nav 1.7; type: cell-based; conditions: CHO cells stably expressing human Nav 1.7; inactivation step -40 mV for 8 seconds, test step 0 mV (TP1A); exposure at least five minutes; room temperature; mean if two or more assays; read-out: Nav1.7 IC50
T2 construct: expressed in transfected cells
Experimental: as §1, §2, §3, §4, §5, §6, §7, §8

T1 sequence (Q9Y5Y9 whole entry): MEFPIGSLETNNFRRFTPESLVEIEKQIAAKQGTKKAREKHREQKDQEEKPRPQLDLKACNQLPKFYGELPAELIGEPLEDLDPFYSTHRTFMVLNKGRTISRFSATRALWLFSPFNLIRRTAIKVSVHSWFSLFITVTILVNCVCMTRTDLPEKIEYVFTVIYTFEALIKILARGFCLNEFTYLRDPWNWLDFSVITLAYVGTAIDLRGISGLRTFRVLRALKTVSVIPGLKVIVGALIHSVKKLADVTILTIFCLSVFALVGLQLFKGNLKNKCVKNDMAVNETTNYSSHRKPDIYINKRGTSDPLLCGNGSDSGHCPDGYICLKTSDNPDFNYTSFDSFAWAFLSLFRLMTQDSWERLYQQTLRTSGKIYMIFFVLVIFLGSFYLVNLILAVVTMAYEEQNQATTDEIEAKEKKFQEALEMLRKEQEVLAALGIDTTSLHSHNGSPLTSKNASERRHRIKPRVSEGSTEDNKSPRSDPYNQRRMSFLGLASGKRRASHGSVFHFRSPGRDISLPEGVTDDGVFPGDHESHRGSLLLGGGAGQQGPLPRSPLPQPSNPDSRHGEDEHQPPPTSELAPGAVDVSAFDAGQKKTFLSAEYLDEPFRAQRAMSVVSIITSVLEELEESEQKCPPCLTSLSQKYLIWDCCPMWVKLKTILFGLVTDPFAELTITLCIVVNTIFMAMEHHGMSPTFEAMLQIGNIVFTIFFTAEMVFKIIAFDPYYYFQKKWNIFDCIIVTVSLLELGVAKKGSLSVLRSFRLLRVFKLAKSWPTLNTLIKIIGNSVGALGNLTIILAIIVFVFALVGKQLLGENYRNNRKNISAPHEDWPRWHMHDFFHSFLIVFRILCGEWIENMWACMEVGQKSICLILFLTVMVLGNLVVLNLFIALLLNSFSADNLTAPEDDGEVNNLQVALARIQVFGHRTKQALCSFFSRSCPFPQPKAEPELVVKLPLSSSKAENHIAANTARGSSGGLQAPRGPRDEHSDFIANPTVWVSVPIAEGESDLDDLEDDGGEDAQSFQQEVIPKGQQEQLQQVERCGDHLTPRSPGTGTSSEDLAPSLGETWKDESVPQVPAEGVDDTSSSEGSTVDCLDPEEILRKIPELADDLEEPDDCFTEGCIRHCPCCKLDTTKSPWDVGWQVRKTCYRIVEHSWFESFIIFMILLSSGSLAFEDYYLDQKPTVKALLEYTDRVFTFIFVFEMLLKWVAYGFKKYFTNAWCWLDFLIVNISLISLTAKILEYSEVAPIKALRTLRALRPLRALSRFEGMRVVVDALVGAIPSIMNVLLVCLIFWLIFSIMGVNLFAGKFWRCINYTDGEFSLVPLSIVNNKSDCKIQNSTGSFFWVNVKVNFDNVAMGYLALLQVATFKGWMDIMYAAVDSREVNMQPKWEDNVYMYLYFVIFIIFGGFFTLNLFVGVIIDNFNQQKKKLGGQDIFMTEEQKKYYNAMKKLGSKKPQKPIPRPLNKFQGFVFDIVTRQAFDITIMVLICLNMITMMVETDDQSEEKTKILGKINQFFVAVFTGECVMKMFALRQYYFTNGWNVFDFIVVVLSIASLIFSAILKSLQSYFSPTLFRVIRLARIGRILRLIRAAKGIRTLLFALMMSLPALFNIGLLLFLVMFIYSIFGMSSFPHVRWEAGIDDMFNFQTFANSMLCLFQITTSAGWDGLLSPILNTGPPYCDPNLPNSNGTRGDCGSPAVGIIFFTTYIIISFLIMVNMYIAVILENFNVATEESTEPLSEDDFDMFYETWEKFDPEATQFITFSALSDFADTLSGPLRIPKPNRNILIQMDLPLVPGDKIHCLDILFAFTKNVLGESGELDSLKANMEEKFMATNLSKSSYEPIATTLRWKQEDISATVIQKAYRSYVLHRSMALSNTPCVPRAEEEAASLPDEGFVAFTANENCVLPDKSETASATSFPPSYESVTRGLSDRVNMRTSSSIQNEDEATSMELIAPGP
T2 sequence (Q15858 whole entry): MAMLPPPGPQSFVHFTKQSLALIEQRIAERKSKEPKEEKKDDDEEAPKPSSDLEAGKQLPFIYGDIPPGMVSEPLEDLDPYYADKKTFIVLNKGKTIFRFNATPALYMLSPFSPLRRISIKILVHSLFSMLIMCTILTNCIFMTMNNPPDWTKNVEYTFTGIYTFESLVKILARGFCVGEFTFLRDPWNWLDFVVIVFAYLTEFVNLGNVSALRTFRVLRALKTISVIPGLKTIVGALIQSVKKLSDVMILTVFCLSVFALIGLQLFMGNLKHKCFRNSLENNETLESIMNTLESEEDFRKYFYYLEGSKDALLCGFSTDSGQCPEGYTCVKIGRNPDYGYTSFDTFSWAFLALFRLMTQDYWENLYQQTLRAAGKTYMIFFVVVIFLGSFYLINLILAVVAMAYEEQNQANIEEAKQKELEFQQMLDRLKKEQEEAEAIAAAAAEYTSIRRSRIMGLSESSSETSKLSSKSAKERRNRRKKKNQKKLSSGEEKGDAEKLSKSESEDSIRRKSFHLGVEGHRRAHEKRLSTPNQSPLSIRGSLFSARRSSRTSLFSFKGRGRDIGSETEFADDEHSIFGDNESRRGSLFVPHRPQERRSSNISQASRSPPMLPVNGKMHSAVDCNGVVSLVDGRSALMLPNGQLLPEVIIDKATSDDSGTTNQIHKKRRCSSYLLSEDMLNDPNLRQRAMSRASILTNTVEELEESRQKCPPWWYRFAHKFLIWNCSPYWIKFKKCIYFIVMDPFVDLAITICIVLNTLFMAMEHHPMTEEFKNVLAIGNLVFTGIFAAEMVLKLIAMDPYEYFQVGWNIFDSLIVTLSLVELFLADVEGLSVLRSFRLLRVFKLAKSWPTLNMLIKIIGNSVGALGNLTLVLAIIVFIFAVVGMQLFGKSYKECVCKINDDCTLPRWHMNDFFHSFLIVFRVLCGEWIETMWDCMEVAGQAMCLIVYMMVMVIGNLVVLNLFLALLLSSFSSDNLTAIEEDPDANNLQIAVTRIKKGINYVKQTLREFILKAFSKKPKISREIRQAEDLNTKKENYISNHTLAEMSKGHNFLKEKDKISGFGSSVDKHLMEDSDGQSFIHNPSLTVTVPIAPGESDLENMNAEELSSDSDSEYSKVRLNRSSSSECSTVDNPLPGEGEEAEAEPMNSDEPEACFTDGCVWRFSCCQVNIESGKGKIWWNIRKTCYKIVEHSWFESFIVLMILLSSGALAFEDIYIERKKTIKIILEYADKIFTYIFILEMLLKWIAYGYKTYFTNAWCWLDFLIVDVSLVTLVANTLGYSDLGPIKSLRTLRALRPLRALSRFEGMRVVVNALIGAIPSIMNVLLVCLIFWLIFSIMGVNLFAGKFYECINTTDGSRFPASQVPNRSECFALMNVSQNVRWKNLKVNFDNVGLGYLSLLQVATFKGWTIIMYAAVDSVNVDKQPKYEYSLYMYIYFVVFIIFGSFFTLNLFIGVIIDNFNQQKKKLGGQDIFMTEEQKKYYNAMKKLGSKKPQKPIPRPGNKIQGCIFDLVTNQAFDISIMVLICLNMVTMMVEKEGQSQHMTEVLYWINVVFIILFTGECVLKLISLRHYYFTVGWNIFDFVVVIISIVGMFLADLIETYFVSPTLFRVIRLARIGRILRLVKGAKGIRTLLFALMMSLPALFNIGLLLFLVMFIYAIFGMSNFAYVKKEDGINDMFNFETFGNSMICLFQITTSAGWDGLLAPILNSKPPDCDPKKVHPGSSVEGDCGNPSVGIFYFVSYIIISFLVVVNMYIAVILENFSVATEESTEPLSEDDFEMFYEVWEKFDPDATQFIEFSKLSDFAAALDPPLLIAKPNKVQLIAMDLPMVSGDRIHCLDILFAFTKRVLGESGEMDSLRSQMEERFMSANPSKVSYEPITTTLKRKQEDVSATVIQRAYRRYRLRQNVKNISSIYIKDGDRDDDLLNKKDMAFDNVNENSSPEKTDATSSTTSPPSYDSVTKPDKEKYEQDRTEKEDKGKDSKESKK

With `COc1ccc(F)c(CONC(=O)c2cncc(-c3ccc(O)cc3)n2)c1` [Compound 1, N-((2-fluoro-5-methoxybenzyl)oxy)-6-(4-hydroxyphenyl)pyrazine-2-carboxamide] the IC50 [1] was greater than 1 µM and the IC50 [2] was greater than 1 µM.

`COc1ccc(-c2cncc(C(=O)NOCc3cc(OC)ccc3F)n2)cc1` [Compound 2, N-((2-fluoro-5-methoxybenzyl)oxy)-6-(4-methoxyphenyl)pyrazine-2-carboxamide] was tested, and the IC50 [1] was less than 0.5 µM and the IC50 [2] was greater than 1 µM.

For `COc1ccc(F)c(CONC(=O)c2cncc(-c3ccc(OC(C)C)cc3)n2)c1` [Compound 3, N-((2-fluoro-5-methoxybenzyl)oxy)-6-(4-isopropoxyphenyl)pyrazine-2-carboxamide], the IC50 [1] was less than 0.5 µM and the IC50 [2] was less than 0.5 µM.

In the case of `CCOc1ccc(-c2cncc(C(=O)NOCc3ccccc3F)n2)cc1` [Compound 4, 6-(4-ethoxyphenyl)-N-((2-fluorobenzyl)oxy)pyrazine-2-carboxamide], the IC50 [1] is reported as less than 0.5 µM and the IC50 [2] is reported as 0.5 to 1 µM.

`CCOc1ccc(-c2cncc(C(=O)NOCc3cccc(OC)c3)n2)cc1` [Compound 5, 6-(4-ethoxyphenyl)-N-((3-methoxybenzyl)oxy)pyrazine-2-carboxamide] showed an IC50 [1] of less than 0.5 µM and an IC50 [2] greater than 1 µM.

`CCOc1ccc(-c2cncc(C(=O)NOCc3ccccc3O)n2)cc1` [Compound 6, 6-(4-ethoxyphenyl)-N-((2-hydroxybenzyl)oxy)pyrazine-2-carboxamide] showed an IC50 [1] greater than 1 µM and an IC50 [2] greater than 1 µM.

`CCOc1ccc(-c2cncc(C(=O)NOCc3cccc(O)c3)n2)cc1` [Compound 7, 6-(4-ethoxyphenyl)-N-((3-hydroxybenzyl)oxy)pyrazine-2-carboxamide] showed an IC50 [1] greater than 1 µM and an IC50 [2] greater than 1 µM.

Compound `CCOc1ccc(-c2cncc(C(=O)NOCc3cncc(OC)c3)n2)cc1` [Compound 8, 6-(4-ethoxyphenyl)-N-((5-methoxypyridine-3-yl)methoxy)pyrazine-2-carboxamide] has an IC50 [1] greater than 1 µM and an IC50 [2] greater than 1 µM.

`CCOc1ccc(-c2cncc(C(=O)NOCc3cc(OC)ccc3F)n2)cc1` [Compound 9, 6-(4-ethoxyphenyl)-N-((2-fluoro-5-methoxybenzyl)oxy)pyrazine-2-carboxamide] showed an IC50 [1] of less than 0.5 µM and an IC50 [2] greater than 1 µM.

`CCOc1ccc(-c2cncc(C(=O)NOCc3cc(OC(C)C)ccc3F)n2)cc1` [Compound 10, 6-(4-ethoxyphenyl)-N-((2-fluoro-5-isopropoxybenzyl)oxy)pyrazine-2-carboxamide] was tested, and the IC50 [1] was less than 0.5 µM and the IC50 [2] was greater than 1 µM.

`CCOc1ccc(-c2cncc(C(=O)NOCc3cc(OC)ccc3Cl)n2)cc1` [Compound 11, N-((2-chloro-5-methoxybenzyl)oxy)-6-(4-ethoxyphenyl)pyrazine-2-carboxamide] was tested, and the IC50 [1] was less than 0.5 µM and the IC50 [2] was 0.5 to 1 µM.

Compound `CCOc1ccc(-c2cncc(C(=O)NOCc3cc(OC)cnc3F)n2)cc1` [Compound 12, 6-(4-ethoxyphenyl)-N-((2-fluoro-5-methoxypyridine-3-yl)methoxy)pyrazine-2-carboxamide] has an IC50 [1] of less than 0.5 µM and an IC50 [2] greater than 1 µM.

Work on `CCOc1ccc(-c2cncc(C(=O)NOCc3cc(OC)ncc3F)n2)cc1` [Compound 13, 6-(4-ethoxyphenyl)-N-((5-fluoro-2-methoxypyridine-4-yl)methoxy)pyrazine-2-carboxamide] yielded an IC50 [1] of less than 0.5 µM and an IC50 [2] greater than 1 µM.

For `CCOc1ccc(-c2cncc(C(=O)NOCc3cc(O)ccc3F)n2)cc1` [Compound 14, 6-(4-ethoxyphenyl)-N-((2-fluoro-5-hydroxybenzyl)oxy)pyrazine-2-carboxamide], the IC50 [1] was less than 0.5 µM and the IC50 [2] was greater than 1 µM.

Work on `CCOc1ccc(-c2cncc(C(=O)NOCc3cc(OC)ccc3C3CC3)n2)cc1` [Compound 15, N-((2-cyclopropyl-5-methoxybenzyl)oxy)-6-(4-ethoxyphenyl)pyrazine-2-carboxamide] yielded an IC50 [1] of less than 0.5 µM and an IC50 [2] of less than 0.5 µM.

With `CCOc1ccc(-c2cncc(C(=O)NOCc3cc(OC)ccc3O)n2)cc1` [Compound 16, 6-(4-ethoxyphenyl)-N-((2-hydroxy-5-methoxybenzyl)oxy)pyrazine-2-carboxamide] the IC50 [1] was greater than 1 µM and the IC50 [2] was greater than 1 µM.

Work on `CCOc1ccc(-c2cncc(C(=O)NOCc3cc(C(C)N)ccc3F)n2)cc1` (centres unmarked) [Compound 17, N-((5-(1-aminoethyl)-2-fluorobenzyl)oxy)-6-(4-ethoxyphenyl)pyrazine-2-carboxamide] yielded an IC50 [1] of less than 0.5 µM and an IC50 [2] greater than 1 µM.

For `CCOc1ccc(-c2cncc(C(=O)NOCc3cc(OC)cnc3C)n2)cc1` [Compound 18, 6-(4-ethoxyphenyl)-N-((5-methoxy-2-methylpyridine-3-yl)methoxy)pyrazine-2-carboxamide], the IC50 [1] was less than 0.5 µM and the IC50 [2] was 0.5 to 1 µM.

In the case of `CCOc1ccc(-c2cncc(C(=O)NOCc3cc(OC)ccc3C)n2)cc1` [Compound 19, 6-(4-ethoxyphenyl)-N-((5-methoxy-2-methylbenzyl)oxy)pyrazine-2-carboxamide], the IC50 [1] is reported as greater than 1 µM and the IC50 [2] is reported as greater than 1 µM.

`CCOc1ccc(-c2cncc(C(=O)NOCc3cc(OC)cc(OC)c3)n2)cc1` [Compound 20, N-((3,5-dimethoxybenzyl)oxy)-6-(4-ethoxyphenyl)pyrazine-2-carboxamide] showed an IC50 [1] greater than 1 µM and an IC50 [2] greater than 1 µM.

`CCOc1ccc(-c2cncc(C(=O)NOCc3cc(C)cc(C)c3)n2)cc1` [Compound 21, N-((3,5-dimethylbenzyl)oxy)-6-(4-ethoxyphenyl)pyrazine-2-carboxamide] gave an IC50 [1] greater than 1 µM and an IC50 [2] greater than 1 µM.

`COc1ccc(F)c(CONC(=O)c2cncc(-c3ccc(OC4CNC4)cc3)n2)c1` [Compound 22, 6-(4-(azetidin-3-yloxy)phenyl)-N-((2-fluoro-5-methoxybenzyl)oxy)pyrazine-2-carboxamide] was tested, and the IC50 [1] was greater than 1 µM and the IC50 [2] was greater than 1 µM.

With `COc1ccc(F)c(CONC(=O)c2cncc(-c3ccc(OCC4CNC4)cc3)n2)c1` [Compound 23, 6-(4-(azetidine-3-ylmethoxy)phenyl)-N-((2-fluoro-5-methoxybenzyl)oxy)pyrazine-2-carboxamide] the IC50 [1] was greater than 1 µM and the IC50 [2] was greater than 1 µM.

`COc1ccc(F)c(CONC(=O)c2cncc(-c3ccc(OCCC4CNC4)cc3)n2)c1` [Compound 24, 6-(4-(2-(azetidine-3-yl)ethoxy)phenyl)-N-((2-fluoro-5-methoxybenzyl)oxy)pyrazine-2-carboxamide] showed an IC50 [1] greater than 1 µM and an IC50 [2] greater than 1 µM.

Work on `COc1ccc(F)c(CONC(=O)c2cncc(-c3ccc(OC4CN(C)C4)cc3)n2)c1` [Compound 25, N-((2-fluoro-5-methoxybenzyl)oxy)-6-(4-((1-methylazetidine-3-yl)oxy)phenyl)pyrazine-2-carboxamide] yielded an IC50 [1] of 0.5 to 1 µM and an IC50 [2] greater than 1 µM.

With `COc1ccc(F)c(CONC(=O)c2cncc(-c3ccc(OCC4CN(C)C4)cc3)n2)c1` [Compound 26, N-((2-fluoro-5-methoxybenzyl)oxy)-6-(4-((1-methylazetidine-3-yl)methoxy)phenyl)pyrazine-2-carboxamide] the IC50 [1] was less than 0.5 µM and the IC50 [2] was 0.5 to 1 µM.

`COc1ccc(F)c(CONC(=O)c2cncc(-c3ccc(OCCC4CN(C)C4)cc3)n2)c1` [Compound 27, N-((2-fluoro-5-methoxybenzyl)oxy)-6-(4-(2-(1-methylazetidine-3-yl)ethoxy)phenyl)pyrazine-2-carboxamide] was tested, and the IC50 [1] was less than 0.5 µM and the IC50 [2] was greater than 1 µM.

Work on `COc1cncc(CONC(=O)c2cncc(-c3ccc(OC(F)F)cc3)n2)c1` [Compound 28, 6-(4-(difluoromethoxy)phenyl)-N-((5-methoxypyridine-3-yl)methoxy)pyrazine-2-carboxamide] yielded an IC50 [1] of less than 0.5 µM and an IC50 [2] greater than 1 µM.

With `COc1ccc(F)c(CONC(=O)c2cncc(-c3ccc([S+](C)[O-])cc3)n2)c1` (centres unmarked) [Compound 29, N-((2-fluoro-5-methoxybenzyl)oxy)-6-(4-(methylsulfinyl)phenyl)pyrazine-2-carboxamide] the IC50 [1] was greater than 1 µM and the IC50 [2] was greater than 1 µM.

With `COc1ccc(F)c(CONC(=O)c2cncc(-c3ccc(OC)nc3)n2)c1` [Compound 30, N-((2-fluoro-5-methoxybenzyl)oxy)-6-(6-methoxypyridine-3-yl)pyrazine-2-carboxamide] the IC50 [1] was less than 0.5 µM and the IC50 [2] was greater than 1 µM.

In the case of `COc1ccc(F)c(CONC(=O)c2cncc(-c3ccc(OC(C)C)nc3)n2)c1` [Compound 31, N-((2-fluoro-5-methoxybenzyl)oxy)-6-(6-isopropoxypyridine-3-yl)pyrazine-2-carboxamide], the IC50 [1] is reported as 0.5 to 1 µM and the IC50 [2] is reported as greater than 1 µM.
